In ChEMBL document CHEMBL1147667, “Synthesis and structure-activity relationship study of antidiabetic penta-O-galloyl-D-glucopyranose and its analogues” (2006):

Each compound was assayed on 3T3-L1 (assay: [1-3H]-2-deoxy-D-glucose uptake in 3T3 L1 adipocytes).
Format: functional, Mus musculus
Parameters: reference not given here

Row | SMILES | Activity [Bq]
1 | O=C(OC[C@H]1O[C@@H](OC(=O)c2cc(O)c(O)c(O)c2)[C@@H](OC(=O)c2cc(O)c(O)c(O)c2)[C@@H](OC(=O)c2cc(O)c(O)c(O)c2)[C@@H]1OC(=O)c1cc(O)c(O)c(O)c1)c1cc(O)c(O)c(O)c1 | 19
2 | O=C(OC[C@H]1O[C@@H](OC(=O)c2cc(O)c(O)c(O)c2)[C@H](OC(=O)c2cc(O)c(O)c(O)c2)[C@@H](OC(=O)c2cc(O)c(O)c(O)c2)[C@H]1OC(=O)c1cc(O)c(O)c(O)c1)c1cc(O)c(O)c(O)c1 | 19
3 | CC(=O)OC[C@H]1O[C@H](OC(C)=O)[C@H](OC(C)=O)[C@@H](OC(C)=O)[C@@H]1OC(C)=O | 31
4 | O=C(OC[C@H]1O[C@H](OC(=O)c2ccc(O)c(O)c2)[C@H](OC(=O)c2ccc(O)c(O)c2)[C@@H](OC(=O)c2ccc(O)c(O)c2)[C@@H]1OC(=O)c1ccc(O)c(O)c1)c1ccc(O)c(O)c1 | 10
5 | O=C(OC[C@H]1OC(OC(=O)c2cc(O)c(O)c(O)c2)[C@H](OC(=O)c2cc(O)c(O)c(O)c2)[C@@H](OC(=O)c2cc(O)c(O)c(O)c2)[C@@H]1OC(=O)c1cc(O)c(O)c(O)c1)c1cc(O)c(O)c(O)c1 (single isomer, unassigned) [PENTAGALLOYL GLUCOSE] | 107
6 | C[C@H]1O[C@@H](OC(=O)c2cc(O)c(O)c(O)c2)[C@H](OC(=O)c2cc(O)c(O)c(O)c2)[C@@H](OC(=O)c2cc(O)c(O)c(O)c2)[C@@H]1OC(=O)c1cc(O)c(O)c(O)c1 | 15
7 | CC(=O)OC[C@H]1O[C@@H](OC(C)=O)[C@H](OC(C)=O)[C@@H](OC(C)=O)[C@@H]1OC(C)=O | 24
8 | O=C(OC[C@H]1O[C@H](OC(=O)c2cc(O)c(O)c(O)c2)[C@H](OC(=O)c2cc(O)c(O)c(O)c2)[C@@H](OC(=O)c2cc(O)c(O)c(O)c2)[C@H]1OC(=O)c1cc(O)c(O)c(O)c1)c1cc(O)c(O)c(O)c1 | 22
9 | O=C(O[C@@H]1OC[C@@H](OC(=O)c2cc(O)c(O)c(O)c2)[C@H](OC(=O)c2cc(O)c(O)c(O)c2)[C@H]1OC(=O)c1cc(O)c(O)c(O)c1)c1cc(O)c(O)c(O)c1 | 21
10 | O=C(OC[C@H]1O[C@H](OC(=O)c2ccccc2)[C@H](OC(=O)c2ccccc2)[C@@H](OC(=O)c2ccccc2)[C@@H]1OC(=O)c1ccccc1)c1ccccc1 | 34
11 | O=C(OC[C@H]1O[C@@H](OC(=O)c2ccc(O)c(O)c2)[C@H](OC(=O)c2ccc(O)c(O)c2)[C@@H](OC(=O)c2ccc(O)c(O)c2)[C@@H]1OC(=O)c1ccc(O)c(O)c1)c1ccc(O)c(O)c1 | 20
12 | O=C(OC1OC[C@H](OC(=O)c2cc(O)c(O)c(O)c2)[C@H](OC(=O)c2cc(O)c(O)c(O)c2)[C@H]1OC(=O)c1cc(O)c(O)c(O)c1)c1cc(O)c(O)c(O)c1 (single isomer, unassigned; 65) | 14
13 | O=C(OC1OC[C@H](OC(=O)c2cc(O)c(O)c(O)c2)[C@H](OC(=O)c2cc(O)c(O)c(O)c2)[C@H]1OC(=O)c1cc(O)c(O)c(O)c1)c1cc(O)c(O)c(O)c1 (single isomer, unassigned; 63) | 23
14 | O=C(OC[C@H]1O[C@@H](OC(=O)c2ccc(O)cc2)[C@H](OC(=O)c2ccc(O)cc2)[C@@H](OC(=O)c2ccc(O)cc2)[C@@H]1OC(=O)c1ccc(O)cc1)c1ccc(O)cc1 | 27
15 | O=C(O[C@H]1OC[C@@H](OC(=O)c2cc(O)c(O)c(O)c2)[C@H](OC(=O)c2cc(O)c(O)c(O)c2)[C@H]1OC(=O)c1cc(O)c(O)c(O)c1)c1cc(O)c(O)c(O)c1 | 124
16 | OC[C@H]1O[C@H](O)[C@H](O)[C@@H](O)[C@@H]1O | 34
17 | O=C(O[C@@H]1OC[C@@H](OC(=O)c2cc(O)c(O)c(O)c2)[C@H](OC(=O)c2cc(O)c(O)c(O)c2)[C@@H]1OC(=O)c1cc(O)c(O)c(O)c1)c1cc(O)c(O)c(O)c1 | 7
18 | O=C(OC[C@@H]1C[C@H](OC(=O)c2cc(O)c(O)c(O)c2)[C@@H](OC(=O)c2cc(O)c(O)c(O)c2)[C@H](OC(=O)c2cc(O)c(O)c(O)c2)O1)c1cc(O)c(O)c(O)c1 | 30
19 | O=C(O[C@H]1OC[C@@H](OC(=O)c2cc(O)c(O)c(O)c2)[C@@H](OC(=O)c2cc(O)c(O)c(O)c2)[C@H]1OC(=O)c1cc(O)c(O)c(O)c1)c1cc(O)c(O)c(O)c1 | 10
20 | O=C(OC[C@H]1O[C@H](OC(=O)c2cc(O)cc(O)c2)[C@H](OC(=O)c2cc(O)cc(O)c2)[C@@H](OC(=O)c2cc(O)cc(O)c2)[C@@H]1OC(=O)c1cc(O)cc(O)c1)c1cc(O)cc(O)c1 | 16

Row | SMILES | Activity [Bq]
21 | O=C(OC[C@H]1O[C@H](OC(=O)c2ccc(O)cc2)[C@H](OC(=O)c2ccc(O)cc2)[C@@H](OC(=O)c2ccc(O)cc2)[C@@H]1OC(=O)c1ccc(O)cc1)c1ccc(O)cc1 | 30
22 | O=C(OC[C@H]1O[C@H](OC(=O)c2cc(O)c(O)c(O)c2)C[C@@H](OC(=O)c2cc(O)c(O)c(O)c2)[C@@H]1OC(=O)c1cc(O)c(O)c(O)c1)c1cc(O)c(O)c(O)c1 | 29
23 | O=c1oc2c(O)c(O)cc3c(=O)oc4c(O)c(O)cc1c4c23 [ELLAGIC ACID] | 27
24 | O=C(OC[C@H]1O[C@@H](OC(=O)c2cc(O)cc(O)c2)[C@H](OC(=O)c2cc(O)cc(O)c2)[C@@H](OC(=O)c2cc(O)cc(O)c2)[C@@H]1OC(=O)c1cc(O)cc(O)c1)c1cc(O)cc(O)c1 | 30
25 | O=C(O[C@@H]1OC[C@@H](OC(=O)c2cc(O)c(O)c(O)c2)[C@@H](OC(=O)c2cc(O)c(O)c(O)c2)[C@H]1OC(=O)c1cc(O)c(O)c(O)c1)c1cc(O)c(O)c(O)c1 | 12
26 | O=C(OC[C@@H]1C[C@H](OC(=O)c2cc(O)c(O)c(O)c2)[C@@H](OC(=O)c2cc(O)c(O)c(O)c2)[C@@H](OC(=O)c2cc(O)c(O)c(O)c2)O1)c1cc(O)c(O)c(O)c1 | 28
27 | O=C(OC[C@H]1O[C@@H](OC(=O)c2cc(O)c(O)c(O)c2)C[C@@H](OC(=O)c2cc(O)c(O)c(O)c2)[C@@H]1OC(=O)c1cc(O)c(O)c(O)c1)c1cc(O)c(O)c(O)c1 | 15
28 | O=C(O)c1cc(O)c(O)c(O)c1 [GALLIC ACID] | 31
29 | O=C(O[C@H]1O[C@H](CCl)[C@@H](OC(=O)c2cc(O)c(O)c(O)c2)[C@H](OC(=O)c2cc(O)c(O)c(O)c2)[C@H]1OC(=O)c1cc(O)c(O)c(O)c1)c1cc(O)c(O)c(O)c1 | 181
30 | O=C(O[C@H]1OC[C@@H](OC(=O)c2cc(O)c(O)c(O)c2)[C@H](OC(=O)c2cc(O)c(O)c(O)c2)[C@@H]1OC(=O)c1cc(O)c(O)c(O)c1)c1cc(O)c(O)c(O)c1 | 21
31 | C[C@H]1O[C@H](OC(=O)c2cc(O)c(O)c(O)c2)[C@H](OC(=O)c2cc(O)c(O)c(O)c2)[C@@H](OC(=O)c2cc(O)c(O)c(O)c2)[C@@H]1OC(=O)c1cc(O)c(O)c(O)c1 | 115
32 | O=C(OC[C@H]1O[C@@H](OC(=O)c2cc(O)c(O)c(O)c2)[C@H](OC(=O)c2cc(O)c(O)c(O)c2)[C@H](OC(=O)c2cc(O)c(O)c(O)c2)[C@@H]1OC(=O)c1cc(O)c(O)c(O)c1)c1cc(O)c(O)c(O)c1 | 34
33 | O=C(OC[C@H]1O[C@H](OC(=O)c2cc(O)c(O)c(O)c2)[C@H](OC(=O)c2cc(O)c(O)c(O)c2)[C@@H](OC(=O)c2cc(O)c(O)c(O)c2)[C@@H]1OC(=O)c1cc(O)c(O)c(O)c1)c1cc(O)c(O)c(O)c1 | 145
34 | COC(=O)c1cc(O)c(O)c(O)c1 [GALLIC ACID METHYL ESTER] | 20
35 | O=C(O[C@H]1O[C@H](CO)[C@@H](OC(=O)c2cc(O)c(O)c(O)c2)[C@H](OC(=O)c2cc(O)c(O)c(O)c2)[C@H]1OC(=O)c1cc(O)c(O)c(O)c1)c1cc(O)c(O)c(O)c1 | 143
36 | O=C(OC[C@H]1O[C@H](OC(=O)c2cc(O)c(O)c(O)c2)[C@@H](OC(=O)c2cc(O)c(O)c(O)c2)[C@@H](OC(=O)c2cc(O)c(O)c(O)c2)[C@@H]1OC(=O)c1cc(O)c(O)c(O)c1)c1cc(O)c(O)c(O)c1 | 20
37 | O=C(OC[C@H]1O[C@@H](OC(=O)c2cc(O)c(O)c(O)c2)[C@H](OC(=O)c2cc(O)c(O)c(O)c2)C[C@@H]1OC(=O)c1cc(O)c(O)c(O)c1)c1cc(O)c(O)c(O)c1 | 7
38 | O=C(OC[C@H]1O[C@H](OC(=O)c2cc(O)c(O)c(O)c2)[C@H](OC(=O)c2cc(O)c(O)c(O)c2)[C@H](OC(=O)c2cc(O)c(O)c(O)c2)[C@@H]1OC(=O)c1cc(O)c(O)c(O)c1)c1cc(O)c(O)c(O)c1 | 23
39 | O=C(OC[C@H]1OC[C@H](OC(=O)c2cc(O)c(O)c(O)c2)[C@@H](OC(=O)c2cc(O)c(O)c(O)c2)[C@@H]1OC(=O)c1cc(O)c(O)c(O)c1)c1cc(O)c(O)c(O)c1 | 5
40 | O=C(OC[C@H]1O[C@H](OC(=O)c2cc(O)c(O)c(O)c2)[C@H](OC(=O)c2cc(O)c(O)c(O)c2)C[C@@H]1OC(=O)c1cc(O)c(O)c(O)c1)c1cc(O)c(O)c(O)c1 | 11
